The source of these data is publication PMC7505949, “Structure-Guided Designing and Evaluation of Peptides Targeting Bacterial Transcription” (Frontiers in Bioengineering and Biotechnology, 2020).

Peptide text beside a SMILES is read from it.

Data set [1] can be described thus: Storage stability in water by LC-MS. Format: physicochemical. Particulars: stored for over a year at 4°C, LC-MS (C18), observed vs calculated molecular weight. As to the method:
The stability of all the designed peptides was analyzed using Liquid chromatography-mass spectrometry (LC-MS) using Agilent Technologies (model G6550A). […] Peptide 3 was injected in the C18 column equilibrated in a positive mode at a flow rate of 0.5 mL/min using water as a mobile phase.
As the interaction interface between RNAP β1β2 domain and the transcription factor (CarD^NTD and TRCF-RID) ([Westblade et al., 2010]; [Gulten and Sacchettini, 2013]) is relatively large, flat, solvent-exposed, and devoid of the binding pocket, it is challenging to design small molecule-based inhibitors. We therefore aimed to design the peptide-based RNAP β/transcription factor inhibitors by selecting the key residues involved in the interaction at the conserved PPI interface between RNAP β and transcription factor complex. The sequence and molecular weight of the designed peptides are mentioned in Table 1. PEP-FOLD3.1 ([Lamiable et al., 2016]), an online server, was used to predict the de novo structures of the designed peptides by running 100 simulations for each peptide. PEP-FOLD3.1 provides the information in the form of models which are generated by OPEP (Optimized Potential for Efficient structure Prediction) energy. […] The peptides were analyzed for their stability and solubility. […]

The nature of data set [2]: Solubility in water and aqueous buffer. It counts as physicochemical. An excerpt:
As the interaction interface between RNAP β1β2 domain and the transcription factor (CarD^NTD and TRCF-RID) ([Westblade et al., 2010]; [Gulten and Sacchettini, 2013]) is relatively large, flat, solvent-exposed, and devoid of the binding pocket, it is challenging to design small molecule-based inhibitors. We therefore aimed to design the peptide-based RNAP β/transcription factor inhibitors by selecting the key residues involved in the interaction at the conserved PPI interface between RNAP β and transcription factor complex. The sequence and molecular weight of the designed peptides are mentioned in Table 1. PEP-FOLD3.1 ([Lamiable et al., 2016]), an online server, was used to predict the de novo structures of the designed peptides by running 100 simulations for each peptide. PEP-FOLD3.1 provides the information in the form of models which are generated by OPEP (Optimized Potential for Efficient structure Prediction) energy. The topmost model with the lowest OPEP score having minimum energy and maximum stability for each peptide was selected for further computational analysis. The designed peptides were 7–8 amino acids in length and were commercially synthesized. The peptides were analyzed for their stability and solubility. All the peptides were soluble in water as well as in aqueous buffer with a solubility of > 10 mM.

For the molecule `CC[C@H](C)[C@H](NC(=O)[C@H](CCC(=O)O)NC(=O)CNC(=O)[C@@H](N)[C@@H](C)O)C(=O)N[C@@H](CCCCN)C(=O)N[C@@H](CO)C(=O)N[C@@H](CCC(N)=O)C(=O)N[C@H](C(=O)O)[C@@H](C)O` [Peptide 2] (H-TGEIKSQT-OH), the Stability on storage entry in data set [1] is “highly stable”. Also, the “Solubility (in words)” value in data set [2] is recorded as “soluble in aqueous buffer”.
